Reference: ChEMBL document CHEMBL6074680, “Structure-Based Discovery of a Series of Covalent, Orally Bioavailable, and Selective BFL1 Inhibitors” (J Med Chem, 2024)

Tests used:
[1] = Metabolic stability in mouse hepatocytes assessed as intrinsic clearance measured per 10^6 cells; type: ADME, cell-based, Hepatocyte; conditions: read-out: CLH
[2] = Lipophilicity, log D of compound in 1-octanol at pH 7.4 incubated for 4 hrs by HPLC-UV analysis; type: physicochemical; conditions: 1-octanol / aqueous phase at pH 7.4, pH 7.4
[3] = Metabolic stability in human hepatocytes assessed as intrinsic clearance measured per 10^6 cells; type: ADME, cell-based, Hepatocyte; conditions: read-out: CLH
SU-DHL-1 [4] = assay: Antiproliferative activity against human SU-DHL-1 cells assessed as cell viability incubated for 24 hrs by celltiter-glo assay; type: functional, cell-based; conditions: SU-DHL-1, 24 h
BCL2A1/BID = molecular target: T1, BCL2A1/BID (Homo sapiens, UniProt Q16548); assay: Inhibition of BFL-1/ BH3 (unknown origin) interaction incubated for 2 hrs by TR-FRET assay; type: protein assay
T1 sequence (Q16548 whole entry): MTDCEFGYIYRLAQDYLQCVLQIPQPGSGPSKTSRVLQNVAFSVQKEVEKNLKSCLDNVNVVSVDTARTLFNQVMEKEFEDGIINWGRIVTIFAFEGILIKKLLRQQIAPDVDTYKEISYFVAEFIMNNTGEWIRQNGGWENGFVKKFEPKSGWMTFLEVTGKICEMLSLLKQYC
T1 sequence (P55957 whole entry): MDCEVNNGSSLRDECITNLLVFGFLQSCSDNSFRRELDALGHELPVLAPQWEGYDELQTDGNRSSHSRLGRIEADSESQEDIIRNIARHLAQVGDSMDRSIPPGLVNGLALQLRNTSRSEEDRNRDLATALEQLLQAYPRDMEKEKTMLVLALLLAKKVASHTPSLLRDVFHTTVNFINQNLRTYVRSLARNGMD

[5] = Metabolic stability in rat hepatocytes assessed as intrinsic clearance measured per 10^6 cells; type: ADME, cell-based, Hepatocyte; conditions: rat hepatocytes, read-out: CLH
SU-DHL-1 [6] = assay: Induction of apoptosis in human SU-DHL-1 cells assessed as caspase activation in presence of AZD5991 incubated for 6 hrs by caspaseGlo 3/7 reagent based assay; type: functional, cell-based; conditions: SU-DHL-1, 6 h
[7] = molecular target: Induced myeloid leukemia cell differentiation protein Mcl-1 (Homo sapiens, UniProt Q07820); assay: Inhibition of MCL1 (unknown origin) by FRET assay
Chain of Induced myeloid leukemia cell differentiation protein Mcl-1 (Q07820 whole entry): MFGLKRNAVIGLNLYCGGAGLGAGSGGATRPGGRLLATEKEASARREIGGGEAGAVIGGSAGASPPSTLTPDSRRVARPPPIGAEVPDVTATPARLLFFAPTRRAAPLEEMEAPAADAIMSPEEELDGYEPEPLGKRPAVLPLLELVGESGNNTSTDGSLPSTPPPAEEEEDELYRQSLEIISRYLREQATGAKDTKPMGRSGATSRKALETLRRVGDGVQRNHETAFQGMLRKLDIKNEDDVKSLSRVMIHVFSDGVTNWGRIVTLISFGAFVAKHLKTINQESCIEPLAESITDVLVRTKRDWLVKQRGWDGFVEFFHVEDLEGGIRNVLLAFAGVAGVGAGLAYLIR

[8] = molecular target: Apoptosis regulator Bcl-2 (Homo sapiens, UniProt P10415); assay: Inhibition of BCL2 (unknown origin) by FRET assay
Chain of Apoptosis regulator Bcl-2 (P10415 whole entry): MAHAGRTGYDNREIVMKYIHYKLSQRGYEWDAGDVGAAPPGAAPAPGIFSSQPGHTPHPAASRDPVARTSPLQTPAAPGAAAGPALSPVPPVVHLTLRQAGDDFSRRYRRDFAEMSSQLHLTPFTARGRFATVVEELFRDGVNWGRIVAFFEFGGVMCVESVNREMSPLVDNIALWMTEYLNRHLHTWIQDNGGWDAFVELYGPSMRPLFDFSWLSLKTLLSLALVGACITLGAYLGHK

[9] = Plasma protein binding in mouse assessed as unbound fraction; type: ADME, cell-free
[10] = Apparent permeability across apical to basolateral side in human Caco-2 cells measured upto 120 mins by LC-MS/MS analysis; type: ADME, cell-based
[11] = Volume of distribution at steady state in CD-1 mouse at 1 mg/kg, po or 0.5 mg/kg, iv measured upto 24 hrs by LC-MS/MS analysis; type: ADME, organism-based; conditions: in vivo
[12] = Half life in CD-1 mouse at 1 mg/kg, po or 0.5 mg/kg, iv measured upto 24 hrs by LC-MS/MS analysis; type: ADME, organism-based; conditions: in vivo
Bcl-2-like protein 1 = Bcl-2-like protein 1 (Homo sapiens, UniProt Q07817); assay: Inhibition of Bcl-Xl (unknown origin) by FRET assay
Chain of Bcl-2-like protein 1 (Q07817 whole entry): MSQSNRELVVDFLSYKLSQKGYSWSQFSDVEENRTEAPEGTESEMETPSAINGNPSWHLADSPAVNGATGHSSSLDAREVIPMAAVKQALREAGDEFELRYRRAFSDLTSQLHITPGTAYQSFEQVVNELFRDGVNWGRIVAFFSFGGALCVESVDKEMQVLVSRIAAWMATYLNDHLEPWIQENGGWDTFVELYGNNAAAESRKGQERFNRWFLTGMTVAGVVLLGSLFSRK

## C=CC(=O)N(c1ccc(O[C@@H]2CC[C@@H](NC(=O)NCCN(C)C)C2)c(Cl)c1)[C@@H](C)c1ccc(Cl)cc1
[1]
  hepatocyte CLint: 42 µL/min/1e6 cells
[2]
  logD at 4 h: 3.5
[3]
  hepatocyte CLint: 9.8 µL/min/1e6 cells
SU-DHL-1 [4]
  EC50: 72 nM
BCL2A1/BID
  IC50: 4.5 nM
[5]
  hepatocyte CLint: 17 µL/min/1e6 cells
SU-DHL-1 [6]
  EC50: 28 nM

## C=CC(=O)N(c1ccc(O[C@@H]2CC[C@@H](NC(=O)NCCN(C)C)C2)cc1)[C@@H](C)c1ccc(Cl)cc1
BCL2A1/BID
  IC50: 50 nM
SU-DHL-1 [6]
  EC50: 500 nM

## C=CC(=O)N(c1ccc(O[C@@H]2CC[C@@H](N)C2)cc1)[C@H](c1ccc(Cl)cc1)c1cncnc1
BCL2A1/BID
  IC50: 33 nM
SU-DHL-1 [6]
  EC50: 120 nM

## C=CC(=O)N(c1ccc(O[C@@H]2CC[C@@H](NC(=O)N[C@@H]3CCS(=O)(=O)C3)C2)c(F)c1)[C@@H](C)c1ccc(C(F)(F)F)c(C#N)c1
[2]
  logD at 4 h: 3.2
BCL2A1/BID
  IC50: 87 nM
[5]
  hepatocyte CLint: 262 µL/min/1e6 cells
SU-DHL-1 [6]
  EC50: 910 nM

## C=CC(=O)N(c1ccc(O[C@@H]2CC[C@@H](N)C2)cc1F)[C@@H](C)c1ccc(Cl)cc1
BCL2A1/BID
  IC50: 48 nM
SU-DHL-1 [6]
  EC50: 410 nM

## C=CC(=O)N(c1ccc(O[C@@H]2CC[C@@H](N)C2)cc1OC)[C@@H](C)c1ccc(Cl)cc1
BCL2A1/BID
  IC50: 880 nM
SU-DHL-1 [6]
  EC50: 2400 nM

## C=CC(=O)N(c1ccc(O[C@@H]2CC[C@@H](N)C2)cc1)[C@@H](COC)c1ccc(Cl)cc1
[7]
  IC50: > 100000 nM
SU-DHL-1 [6]
  EC50: 450 nM

## C=CC(=O)N(c1ccc(O[C@@H]2CC[C@@H](NC(=O)N[C@@H]3CCS(=O)(=O)C3)C2)c(F)c1)[C@@H](CC(C)(C)O)c1ccc(Cl)cc1
[1]
  hepatocyte CLint: 49 µL/min/1e6 cells
[2]
  logD at 4 h: 3.1
[3]
  hepatocyte CLint: 5.3 µL/min/1e6 cells
SU-DHL-1 [4]
  EC50: 49 nM
BCL2A1/BID
  IC50: 4.2 nM
[5]
  hepatocyte CLint: 52 µL/min/1e6 cells
SU-DHL-1 [6]
  EC50: 19 nM

## C=CC(=O)N(c1ccc(O[C@@H]2CC[C@@H](N)C2)cc1)[C@@H](CNS(C)(=O)=O)c1ccc(Cl)cc1
[7]
  IC50: > 100000 nM
BCL2A1/BID
  IC50: 31 nM
SU-DHL-1 [6]
  EC50: 350 nM

## C=C(F)C(=O)N(Cc1ccc(C(F)(F)F)cc1)c1ccc(O[C@@H]2CC[C@@H](N)C2)cc1 (racemic)
BCL2A1/BID
  IC50: > 7800 nM

## C[C@@H](c1ccc(Cl)cc1)N(C(=O)/C=C/CN(C)C)c1ccc(O[C@@H]2CC[C@@H](NC(=O)NC3CS(=O)(=O)C3)C2)c(F)c1
[1]
  hepatocyte CLint: 23 µL/min/1e6 cells
[8]
  IC50: > 30000 nM
[2]
  logD at 4 h: 2.7
[3]
  hepatocyte CLint: 2.6 µL/min/1e6 cells
SU-DHL-1 [4]
  EC50: 110 nM
[9]
  fraction unbound: 0.085
[10]
  Papp A→B at 2 h: < 11 ×10⁻⁶ cm/s
BCL2A1/BID
  IC50: 10 nM
[11]
  Vdss: 4.6 L/kg
SU-DHL-1 [6]
  EC50: 110 nM
[12]
  half-life: 2.7 h
Bcl-2-like protein 1
  IC50: > 30000 nM

## C=CC(=O)N(c1ccc(O[C@@H]2CC[C@@H](N)C2)cc1)[C@@H](C[C@H](C)O)c1ccc(Cl)cc1
SU-DHL-1 [4]
  EC50: 170 nM
BCL2A1/BID
  IC50: 18 nM
SU-DHL-1 [6]
  EC50: 140 nM

## C=CC(=O)N(c1ccc(O[C@@H]2CC[C@@H](N)C2)c(F)c1)[C@@H](CC(C)(C)O)c1ccc(Cl)cc1
[1]
  hepatocyte CLint: 15 µL/min/1e6 cells
[2]
  logD at 4 h: 1.5
[3]
  hepatocyte CLint: 5.9 µL/min/1e6 cells
SU-DHL-1 [4]
  EC50: 58 nM
BCL2A1/BID
  IC50: 11 nM
[5]
  hepatocyte CLint: 7.3 µL/min/1e6 cells
SU-DHL-1 [6]
  EC50: 42 nM

## C=CC(=O)N(c1ccc(O[C@@H]2CC[C@@H](N)C2)c(C#N)c1)[C@@H](C)c1ccc(Cl)cc1
BCL2A1/BID
  IC50: 14 nM
SU-DHL-1 [6]
  EC50: 120 nM

## C=CC(=O)N(c1ccc(O[C@@H]2CC[C@@H](N)C2)cc1)[C@@H](C)c1ccc(Cl)cc1
SU-DHL-1 [6]
  EC50: 1100 nM

## C=CC(=O)N(c1ccc(O[C@@H]2CC[C@@H](N)C2)cc1)[C@@H](CC(C)(C)O)c1ccc(Cl)cc1
[7]
  IC50: > 100000 nM
BCL2A1/BID
  IC50: 33 nM
SU-DHL-1 [6]
  EC50: 520 nM

## C[C@@H](c1ccc(Cl)cc1)N(C(=O)/C=C/CN(C)C)c1ccc(O[C@@H]2CC[C@@H](N)C2)cc1
BCL2A1/BID
  IC50: 90 nM
